Reference: paper PMC7999658, “Characterization of P-Glycoprotein Inhibitors for Evaluating the Effect of P-Glycoprotein on the Intestinal Absorption of Drugs” (Pharmaceutics, 2021)
Like-named read-outs stand apart in the source and are kept apart here.

How the values were obtained:
BCRP = target: T1, BCRP (Homo sapiens, UniProt Q9UNQ0); assay: Inhibition of BCRP-mediated transport of mitoxantrone across Caco-2 cell monolayers; conditions: Caco-2 monolayers
T1 sequence (Q9UNQ0 1-655): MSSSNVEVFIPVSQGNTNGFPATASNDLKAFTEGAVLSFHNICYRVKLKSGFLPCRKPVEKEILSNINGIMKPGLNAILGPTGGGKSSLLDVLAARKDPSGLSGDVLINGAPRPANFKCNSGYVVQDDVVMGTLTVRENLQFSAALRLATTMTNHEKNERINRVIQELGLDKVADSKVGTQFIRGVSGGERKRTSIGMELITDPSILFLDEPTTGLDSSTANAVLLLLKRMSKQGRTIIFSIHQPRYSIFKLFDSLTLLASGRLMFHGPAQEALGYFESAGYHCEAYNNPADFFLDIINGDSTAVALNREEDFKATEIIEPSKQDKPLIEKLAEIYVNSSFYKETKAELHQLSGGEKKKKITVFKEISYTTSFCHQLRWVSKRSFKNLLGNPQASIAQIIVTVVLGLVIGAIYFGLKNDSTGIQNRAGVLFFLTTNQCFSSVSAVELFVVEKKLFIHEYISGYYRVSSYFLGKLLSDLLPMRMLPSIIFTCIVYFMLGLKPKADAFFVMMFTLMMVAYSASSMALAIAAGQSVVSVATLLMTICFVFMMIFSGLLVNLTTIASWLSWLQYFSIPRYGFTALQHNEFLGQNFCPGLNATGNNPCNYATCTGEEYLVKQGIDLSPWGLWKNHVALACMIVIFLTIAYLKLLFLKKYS
Description: For transport experiments, Caco-2 cells were grown on a polyethylene terephthalate insert (0.4 μm pore size, 12 mm diameter) at 1.0 × 10^5 cells/well, and cultured for 14–21 days with the replacement of the medium once every 2 days. Caco-2 cells used in this study were within the passage range of 55 through 70.
(§1) The efflux ratio (ER) was calculated using Equation (3) ER = Papp,BA/Papp,AB(3) where Papp,AB and Papp,BA are the Papp values for AP-to-BL and BL-to-AP transport, respectively.
(§2) IC50 values of Papp,BA and ER were also determined using Equation (4).

P-gp = target: T2, P-gp (Homo sapiens, UniProt P08183); assay: Inhibition of P-gp-mediated transport of paclitaxel across Caco-2 cell monolayers; assay type: cell-based
T2 construct: host or cells: Caco-2
Description: Caco-2 cells from Dainippon Sumitomo Pharma (Osaka, Japan) were cultured in DMEM supplemented with 10% heat-inactivated fetal bovine serum, 1% antibiotic-antimycotic, 1% nonessential amino acids, and 2 mM L-glutamine [31]. Cells were maintained at 37 °C in 5% CO2/95% air and passaged upon reaching approximately 80% confluence using 0.25% trypsin/1 mM EDTA solution. For transport experiments, Caco-2 cells were grown on a polyethylene terephthalate insert (0.4 μm pore size, 12 mm diameter) at 1.0 × 10^5 cells/well, and cultured for 14–21 days with the replacement of the medium once every 2 days. Caco-2 cells used in this study were within the passage range of 55 through 70.
as §1, §2

Caco-2 cell monolayers = assay: Caco-2 monolayer transport study: paracellular marker permeability and mass balance (% recovery); assay type: in vitro ADME, human; conditions: Caco-2 monolayers, lucifer yellow 100 μM

T2 sequence (P08183 whole entry): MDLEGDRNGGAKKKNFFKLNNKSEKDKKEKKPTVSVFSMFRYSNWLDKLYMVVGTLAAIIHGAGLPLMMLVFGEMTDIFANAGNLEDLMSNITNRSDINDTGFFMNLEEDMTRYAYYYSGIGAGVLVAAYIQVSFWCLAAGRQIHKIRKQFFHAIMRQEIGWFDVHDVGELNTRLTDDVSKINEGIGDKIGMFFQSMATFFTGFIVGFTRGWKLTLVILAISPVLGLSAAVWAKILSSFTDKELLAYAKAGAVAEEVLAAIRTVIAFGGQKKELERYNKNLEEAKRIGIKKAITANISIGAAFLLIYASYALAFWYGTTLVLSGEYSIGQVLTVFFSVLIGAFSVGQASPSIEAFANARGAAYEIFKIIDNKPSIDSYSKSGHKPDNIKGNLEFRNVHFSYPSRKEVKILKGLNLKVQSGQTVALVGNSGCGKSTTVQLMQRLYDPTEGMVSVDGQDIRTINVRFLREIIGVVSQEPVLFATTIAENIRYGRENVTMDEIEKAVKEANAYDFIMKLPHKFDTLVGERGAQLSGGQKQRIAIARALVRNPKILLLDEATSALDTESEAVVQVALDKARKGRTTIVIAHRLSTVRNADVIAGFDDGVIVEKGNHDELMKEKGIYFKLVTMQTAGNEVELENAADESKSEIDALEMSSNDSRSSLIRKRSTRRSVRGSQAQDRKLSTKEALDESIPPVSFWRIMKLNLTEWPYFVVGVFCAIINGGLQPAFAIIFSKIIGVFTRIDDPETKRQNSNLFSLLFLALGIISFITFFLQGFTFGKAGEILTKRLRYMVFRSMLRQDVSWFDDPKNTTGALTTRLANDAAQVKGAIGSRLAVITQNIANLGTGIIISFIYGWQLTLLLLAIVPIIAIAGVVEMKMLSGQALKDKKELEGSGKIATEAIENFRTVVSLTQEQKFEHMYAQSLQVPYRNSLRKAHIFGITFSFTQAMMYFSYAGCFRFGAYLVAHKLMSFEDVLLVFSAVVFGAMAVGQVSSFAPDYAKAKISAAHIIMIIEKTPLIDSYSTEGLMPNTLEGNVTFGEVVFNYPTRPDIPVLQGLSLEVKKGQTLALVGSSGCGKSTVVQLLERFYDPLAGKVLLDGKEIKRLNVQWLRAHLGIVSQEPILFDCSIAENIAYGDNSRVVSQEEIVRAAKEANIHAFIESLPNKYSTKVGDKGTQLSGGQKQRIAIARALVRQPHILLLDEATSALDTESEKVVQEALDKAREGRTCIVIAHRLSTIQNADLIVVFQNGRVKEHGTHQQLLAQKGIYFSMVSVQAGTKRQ

Molecule	Hill coefficient, ER of mitoxantrone (BCRP)	transport of paclitaxel in Caco-2 cells on addition of inhibitor (P-gp; 0.01-10 μM inhibitor)	Papp,AB (Caco-2 cell monolayers) [×10⁻⁶ cm/s]	IC50 (BCRP; IC50 on ER of mitoxantrone, 50% decrease of efflux ratio) [nM]	IC50 (BCRP; IC50 on Papp,BA of mitoxantrone, mitoxantrone 5 μM, 50% decrease of Papp,BA) [nM]	Hill coefficient, ER of paclitaxel (P-gp; Caco-2 monolayers)	IC50 (P-gp; Caco-2 monolayers, 50% decrease of efflux ratio, read-out: IC50 on ER of paclitaxel) [nM]	IC50 (P-gp; Caco-2 monolayers, paclitaxel 5 μM, 50% decrease of Papp,BA, read-out: IC50 on Papp,BA of paclitaxel) [nM]	IC50 (P-gp; Caco-2 monolayers, paclitaxel 5 μM, inhibitor concentration to achieve 50% increase of Papp,AB, read-out: IC50 on Papp,AB of paclitaxel) [nM]
CCOC/C=C/c1ccc(-c2nc(-c3ccc(NC(C)C)cc3)c(-c3ccc(NC(C)C)cc3)[nH]2)cc1 [OC144-093, (E)-4,4’-(2-(4-[3-ethoxyprop-1-en-1-yl]phenyl)-1H-imidazole-4,5-diyl)bis(N-isopropylaniline)]	3.61 ± 0.41	not changed	–	–	–	–	–	–	–
lucifer yellow	–	–	0.1	–	–	–	–	–	–
COc1cc(C(=O)C(=O)N2CCCC[C@H]2C(=O)OC(CCCc2cccnc2)CCCc2cccnc2)cc(OC)c1OC [VX-710, (S)-N-(2-Oxo-2-(3,4,5-trimethoxyphenyl)-acetyl)piperidine-2-carboxylic acid 1,7-bis(3-pyridyl)-4-heptyl ester]	0.46 ± 0.12	–	–	1640 ± 520	2680 ± 31	1.68 ± 0.38	871 ± 277	4500 ± 84	2680 ± 53
